Test system: HO-1 protein
Assay: Renal cortical HO-1 protein (ELISA) after FeS, SnPP, B12
Type: in vivo, CD-1 mice
Conditions: 4 hrs and 18 hrs after IV injection
Procedure: Effects of FeS, SnPP, and B12 on renal cortical induction of heme oxygenase 1(HO-1). The following experiments assessed the effects of FeS, SnPP, and B12 on the possible induction of the cytoprotective protein HO-1. To this end, mice were injected with each of these agents, as noted above. Either 4 or 18 hrs later, they were anesthetized and the kidneys were removed through a midline abdominal incision. The renal cortices were dissected on ice and then extracted for protein and mRNA. The samples were then assayed for HO-1 protein by ELISA, and HO-1 mRNA by RT-PCR, factored by GAPDH levels. Five normal mice provided control values.

Substance: cyanocobalamin [B12]
- HO-1 protein increases (FIG. 21): marked HO-1 protein increases within 4 hrs and persists for 18 hrs

— patent US20190358242A1, “COMPOSITIONS, KITS, AND METHODS TO INDUCE ACQUIRED CYTORESISTANCE USING STRESS PROTEIN INDUCERS” (FRED HUTCHINSON CANCER RESEARCH CENTER, priority 2017, published 2019)
